Assay results as given in patent publication US10752587B2, “Homobispiperidinyl derivatives as liver X receptor beta agonists, compositions and their use” (Merck Sharp & Dohme Corp., priority 2015, dated 2020).
Like-named read-outs stand apart in the source and are kept apart here.

What was measured:
[1] = biological target: T1, glutathione-S-transferase (GST) tagged LXRbeta LBD (ligand binding domain) (Homo sapiens, UniProt P55055); assay: LanthaScreen TR-FRET Liver X Receptor Coactivator Assay, co-activator recruitment to LXRbeta LBD; format: biochemical
T1 construct: purchased Invitrogen pv4658.pps
T1 sequence (P55055 222-460 limits assumed): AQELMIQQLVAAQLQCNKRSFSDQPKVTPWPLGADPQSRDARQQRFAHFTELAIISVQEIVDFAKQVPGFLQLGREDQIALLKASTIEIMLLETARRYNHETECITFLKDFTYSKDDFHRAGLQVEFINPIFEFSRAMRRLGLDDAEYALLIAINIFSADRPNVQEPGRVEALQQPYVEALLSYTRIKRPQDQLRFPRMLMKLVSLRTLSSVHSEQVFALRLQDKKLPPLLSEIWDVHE
How it was run: (§1)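 GST-tagged LBD added to test compound, then fluorescein-labelled coactivator peptide plus terbium anti-GST antibody; incubated at room temperature, TR-FRET read. Potency given as inflection point and efficacy as Emax relative to reference dual agonist T0901317.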

[2] = biological target: T2, glutathione-S-transferase (GST) tagged LXRalpha LBD (ligand binding domain) (Homo sapiens, UniProt Q13133); assay: LanthaScreen TR-FRET Liver X Receptor Coactivator Assay, co-activator recruitment to LXRalpha LBD; format: biochemical
T2 construct: purchased Invitrogen pv4655
T2 sequence (Q13133 209-447 limits assumed): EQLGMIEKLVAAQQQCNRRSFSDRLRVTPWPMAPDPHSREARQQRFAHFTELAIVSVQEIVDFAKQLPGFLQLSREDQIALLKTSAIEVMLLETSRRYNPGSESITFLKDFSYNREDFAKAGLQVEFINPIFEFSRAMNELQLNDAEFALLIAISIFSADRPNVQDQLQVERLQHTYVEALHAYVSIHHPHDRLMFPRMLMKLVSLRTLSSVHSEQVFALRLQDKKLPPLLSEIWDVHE
How it was run: as §1

[3] = efficacy at max dose, in relation to reference dual agonist T0901317, read-out: LXR beta Activity @ max dose (%)
[4] = potency (Inflection Point, IP), co-activator recruitment to LXRbeta LBD, in relation to T0901317, read-out: LXR beta IP
[5] = efficacy at max dose, in relation to reference dual agonist T0901317, read-out: LXR alpha Activity @ max dose (%)
[6] = potency (Inflection Point, IP), co-activator recruitment to LXRalpha LBD, in relation to T0901317, read-out: LXR alpha IP
[7] = potency (Inflection Point, IP), co-activator recruitment to LXRalpha LBD, in relation to T0901317
[8] = co-activator recruitment to GST-LXRbeta LBD, TR-FRET, read-out: LXR beta IP (Inflection Point, potency)
[9] = efficacy in relation to reference dual agonist T0901317, read-out: LXR beta Activity @ max dose
[10] = co-activator recruitment to GST-LXRalpha LBD, TR-FRET, read-out: LXR alpha IP (Inflection Point, potency)
[11] = efficacy in relation to reference dual agonist T0901317, read-out: LXR alpha Activity @ max dose

| SMILES | Emax [1, 3] [%] | EC50 [1, 4] [nM] | Emax [2, 5] [%] | EC50 [2, 6] [nM] | LXR alpha IP (nM) [2, 7] | EC50 [1, 8] [nM] | Emax [1, 9] [%] | EC50 [2, 10] [nM] | Emax [2, 11] [%] | LXR alpha IP (Inflection Point, potency) ([2]; co-activator recruitment to GST-LXRalpha LBD, TR-FRET) |
| --- | --- | --- | --- | --- | --- | --- | --- | --- | --- | --- |
| CCc1cccc([C@@](O)(C(=O)N2CCC(C)(CC3CCN(c4ccc(C(=O)N(C)C)c(C)c4)CC3)CC2)C(F)(F)F)c1 [Example 2-78, 4-[4-({1-[(2R)-2-(3-ethylphenyl)-3,3,3-trifluoro-2-hydroxy-propanoyl]-4-methylpiperidin-4-yl}methyl)piperidin-1-yl]-N,N,2-trimethyl-benzamide] | 20 | 32 | 1 | – | NO IP | – | – | – | – | – |
| CN(C)C(=O)c1ccc(N2CCC(CC3CCN(C(=O)[C@](O)(c4ccccc4F)C(F)(F)F)CC3)CC2)cc1Cl [Example 2-85, 2-chloro-N,N-dimethyl-4-[4-({1-[(2R)-3,3,3-trifluoro-2-(2-fluorophenyl)-2-hydroxy-propanoyl]piperidin-4-yl}methyl)piperidin-1-yl]benzamide] | 68 | 17 | 21 | 554 | – | – | – | – | – | – |
| CN(C)C(=O)c1ncc(N2CCC(CC3CCN(C(=O)C(O)(c4cccc(C(F)(F)F)c4)C(F)(F)F)CC3)CC2)cc1Cl (centres unmarked) [Example 2-5, 3-chloro-N,N-dimethyl-5-{4-[(1-{3,3,3-trifluoro-2-hydroxy-2-[3-(trifluoromethyl)phenyl]propanoyl}piperidin-4-yl)methyl]piperidin-1-yl}pyridine-2-carboxamide] | 57 | 29 | 19 | 752 | – | – | – | – | – | – |
| CN(C)C(=O)c1ccc(N2CCC(CC3(C)CCN(C(=O)[C@](O)(c4cccc(F)c4)C(F)(F)F)CC3)CC2)cc1Cl [Example 2-57, 2-chloro-N,N-dimethyl-4-[4-({4-methyl-1-[(2R)-3,3,3-trifluoro-2-(3-fluorophenyl)-2-hydroxy-propanoyl]piperidin-4-yl}methyl)piperidin-1-yl]benzamide] | 67 | 5 | 27 | 37 | – | – | – | – | – | – |
| CN(C)C(=O)c1ccc(N2CCC(CC3CCN(C(=O)[C@](O)(c4cccc(OC(F)F)c4)C(F)(F)F)CC3)CC2)cc1 [Example 2-134, 4-{4-[(1-{(2R)-2-[3-(difluoro-methoxy)phenyl]-3,3,3-trifluoro-2-hydroxy-propanoyl}piperidin-4-yl)methyl]piperidin-1-yl}-N,N-dimethyl-benzamide] | 67 | 120 | 18 | 1980 | – | – | – | – | – | – |
| CN(C)C(=O)c1ccc(N2CCC(CC3CCN(C(=O)c4c(F)cccc4F)CC3)CC2)cc1Cl [Example 2-8, 2-chloro-4-[4-({1-[(2,6-difluorophenyl)carbonyl]piperidin-4-yl}methyl)piperidin-1-yl]-N,N-dimethyl-benzamide] | 40 | 352 | 0 | – | NO IP | – | – | – | – | – |

The remaining lines, values ahead:

| Emax [1, 3] [%] | EC50 [1, 4] [nM] | Emax [2, 5] [%] | EC50 [2, 6] [nM] | LXR alpha IP (nM) [2, 7] | EC50 [1, 8] [nM] | Emax [1, 9] [%] | EC50 [2, 10] [nM] | Emax [2, 11] [%] | LXR alpha IP (Inflection Point, potency) ([2]; co-activator recruitment to GST-LXRalpha LBD, TR-FRET) | SMILES |
| --- | --- | --- | --- | --- | --- | --- | --- | --- | --- | --- |
| 102 | 13 | 47 | 173 | – | – | – | – | – | – | CNC(=O)c1ccc(N2CCC(CC3CCN(C(=O)[C@](O)(c4ccccc4)C(F)(F)F)CC3)CC2)nc1Cl [Example 7-141, 2-chloro-N-methyl-6-[4-({1-[(2R)-3,3,3-trifluoro-2-hydroxy-2-phenylpropanoyl]piperidin-4-yl}methyl)piperidin-1-yl]pyridine-3-carboxamide] |
| – | – | – | – | – | 96 | 70 | 3390 | 26 | – | COc1cccc(S(=O)(=O)N2CC(CC3CCN(c4ccc(C(=O)N(C)C)c(Cl)c4)CC3)C2)c1 [Example 13-2, 2-chloro-4-[4-({1-[(3-methoxyphenyl)-sulfonyl]azetidin-3-yl}methyl)piperidin-1-yl]-N,N-dimethyl-benzamide] |
| – | – | – | – | – | 43 | 95 | 935 | 46 | – | CN(C)C(=O)c1ccc(N2CCC(CC3CCN(S(=O)(=O)c4ccccc4F)CC3)CC2)cc1Cl [Example 13-8, 2-chloro-4-[4-({1-[(2-fluorophenyl)sulfonyl]-piperidin-4-yl}methyl)-piperidin-1-yl]-N,N-dimethylbenzamide] |
| 79 | 37 | 24 | 740 | – | – | – | – | – | – | CNC(=O)c1ccc(N2CCC(CC3CCN(C(=O)[C@](O)(c4cccc(OC(F)(F)F)c4)C(F)(F)F)CC3)CC2)cc1Cl [Example 7-125, 2-chloro-N-methyl-4-{4-[(1-{(2R)-3,3,3-trifluoro-2-hydroxy-2-[3-(trifluoromethoxy)phenyl]propanoyl}piperidin-4-yl)methyl]piperidin-1-yl}benzamide] |
| 114 | 20 | 37 | 429 | – | – | – | – | – | – | Cc1ccccc1C1(C(=O)N2CCC(CC3CCN(c4ccc(C(=O)N(C)C)c(Cl)n4)CC3)CC2)CCC1 [Example 7-56, 2-chloro-N,N-dimethyl-6-{4-[(1-{[1-(2-methylphenyl)cyclobutyl]carbonyl}piperidin-4-yl)methyl]piperidin-1-yl}pyridine-3-carboxamide] |
| 78 | 51 | 30 | 1180 | – | – | – | – | – | – | CNC(=O)c1ccc(N2CCC(CC3CCN(C(=O)[C@](O)(c4cccc(C(F)(F)F)c4)C(F)(F)F)CC3)CC2)cc1Cl [Example 7-128, 2-chloro-N-methyl-4-{4-[(1-{(2R)-3,3,3-trifluoro-2-hydroxy-2-[3-(trifluoromethyl)phenyl]propanoyl}piperidin-4-yl)methyl]piperidin-1-yl}benzamide] |
| 47 | 10 | 6 | – | NO IP | – | – | – | – | – | CCOc1cccc([C@@](O)(C(=O)N2CCC(C)(CC3CCN(c4ccc(C(=O)N(C)C)c(Cl)n4)CC3)CC2)C(F)(F)F)c1 [Example 7-50, 2-chloro-6-[4-({1-[(2R)-2-(3-ethoxyphenyl)-3,3,3-trifluoro-2-hydroxypropanoyl]-4-methylpiperidin-4-yl}methyl)piperidin-1-yl]-N,N-dimethylpyridine-3-carboxamide] |
| – | – | – | – | – | 604 | 26 | – | 0 | NO IP | COc1cccc(CS(=O)(=O)N2CC(CC3CCN(c4ccc(C(=O)N(C)C)c(Cl)c4)CC3)C2)c1 [Example 13-3, 2-chloro-4-[4-({1-[(3-methoxybenzyl)-sulfonyl]azetidin-3-yl}methyl)piperidin-1-yl]-N,N-dimethyl-benzamide] |
